The source of these data is paper PMC11309765, “Mechanism of the blood-brain barrier modulation by cadherin peptides” (Exploration of drug science, 2024).

Data set [1] concerns BBB. On the set-up: method as in 3 sources, ref 49 = [49]; PMID 12754091; doi:10.1016/s0361-9230(03)00043-1; 49. Borlongan CV , Emerich DF . Facilitation of drug entry into the CNS via transient permeation of blood brain barrier: laboratory and preliminary clinical evidence from bradykinin receptor agonist, ||| ref 50 = [50]; PMID 22524793; doi:10.1021/mp3000937; 50. Zwanziger D , Hackel D , Staat C , Böcker A , Brack A , Beyermann M , A peptidomimetic tight junction modulator to improve regional analgesia . Mol Pharm . 2012; 9 : 1785 – 94 . 22524793 10.1021/ ||| ref 43-45 = [43]; PMID 25307218; doi:10.1016/bs.apha.2014.06.002; 43. Doolittle ND , Muldoon LL , Culp AY , Neuwelt EA . Delivery of chemotherapeutics across the blood-brain barrier: challenges and advances . Adv Pharmacol . 2014; 71 : 203 – 43 . 25307218 10.1016/b || [44]; 44. Smith QR . Quantitation of Blood-Brain Barrier Permeability . In: Neuwelt EA , editor. Implications of the Blood-Brain Barrier and Its Manipulation: Volume 1 Basic Science Aspects . Boston, MA : S || [45]; PMID 3930991; doi:10.1227/00006123-198509000-00004; 45. Neuwelt EA , Barnett PA , McCormick CI , Frenkel EP , Minna JD . Osmotic blood-brain barrier modification: monoclonal antibody, albumin, and methotrexate delivery to cerebrospinal fluid and brain. As to conditions: hypertonic mannitol solution; cited from earlier work.

In data set [2] the test system is blood-brain barrier (BBB). As to conditions: cited from earlier work. The source says: In addition, Gd-DTPA delivery to the brain was enhanced when co-administered with ADTC5 in living mice upon detection with magnetic resonance imaging (MRI). […] Different cadherin peptides produced different durations of the BBB opening for different sizes of del ...
Data set [3] deals with BBB. Conditions: in vivo; cited from earlier work. From the text:
As BBBMs, the in vivo activities of ADT and HAV peptides to modulate the BBB were transient and reversible. […] Different cadherin peptides produced different durations of the BBB opening for different sizes of del ...

Data set [4] has as its system EC1 domain of E-cadherin. As to conditions: cited from earlier work. The source says: The BBB paracellular porosity can be magnified by Ala-Asp-Thr (ADT) and His-Ala-Val (HAV) peptides that were derived from cadherin sequences to inhibit cadherin-cadherin interactions. The ADT and HAV peptides were designed from the amino acid sequences of the bulge and grove regions in the cadherin EC1 domain, respectively. As BBB modulators (BBBMs), both ADT and/or HAV peptides enhanced brain depositions of various sizes of molecules to the brain parenchyma such as IRdye 800CW, ^3H-daunomycin, adenanthin, or gadolinium-diethylenetriaminepentacetate (Gd-DTPA or gadopent ... || Figure 6. The proposed mechanisms of binding for Ala-Asp-Thr (ADT) and His-Ala-Val (HAV) peptides to extracellular-1 (EC1) domain of cadherin to inhibit cadherin-cadherin interactions. (A) A model to represent cadherin-to-cadherin interactions in the paracellular pathway at the adherens junction. First is the cis-interaction of EC1 and EC2 on two cadherin proteins that are protruding from one side of cell membranes. Second is the trans-interaction of EC1-EC1 from two cadherins that reside in two opposite membranes; (B) the EC1-EC1 interaction with domain swapping between the N-terminal Trp2 an ... || We hypothesized that HAV and ADT peptides prevent cadherin-cadherin interactions by binding to EC1 in the BBB adherens junctions (Figure 6C and D). Cadherin peptides disrupt the integrity of cell-cell adhesion in dynamics and reversible fashion in paracellular pathways of the BBB. Thus, the NMR and molecular docking experiments were carried out to determine the EC1 binding properties of ADT peptides.

Data set [5] addresses 15N-labeled extracellular-1 (EC1) domain of human E-cadherin (human, UniProt P12830 155-367, 15N-labeled). The data set is described as follows: NMR titration; 1H-15N HSQC (600 MHz) of 15N-labeled EC1 titrated with peptide; 20.0 mM potassium phosphate, 5.0 mM DTT, pH 6.0, 6% D2O; chemical shift perturbation; Kd from the titration curve of a single residue (Ile53 or Leu21). Conditions: both partners purified.

As a reminder, the Kd is the free concentration of one partner at which half of the binding sites on the other are occupied at equilibrium, for simple one-to-one binding.

Entries after “also recorded” stand apart in the source; their conditions may differ. Bridges are numbered along the chain shown (N, C = ends).

15N-labeled extracellular-1 (EC1) domain of human E-cadherin, sequence (P12830 155-367): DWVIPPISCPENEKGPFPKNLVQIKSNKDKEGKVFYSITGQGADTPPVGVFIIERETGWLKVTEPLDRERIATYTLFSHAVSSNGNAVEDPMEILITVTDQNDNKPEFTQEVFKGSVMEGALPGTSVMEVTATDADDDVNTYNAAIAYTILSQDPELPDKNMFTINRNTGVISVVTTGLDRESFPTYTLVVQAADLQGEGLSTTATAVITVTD

Take `OC[C@@H](O)[C@@H](O)[C@H](O)[C@H](O)CO` [mannitol]: in data set [1], the “BBB paracellular porosity by osmotic disruption” value is recorded as “increase paracellular porosity of the intercellular junctions”. Consider “Ac-SHAVSS-NH2 [HAV6, reference compound]”, for which the “delivery of mAb to brain” value in data set [2] (150 kDa mAb) is given as “could not deliver mAb when administered together”. The “duration of BBB opening for transport of Gd-DTPA” value in data set [2] (Gd-DTPA) is given as “less than 45 min”. Further, the “delivery of Galbumin to brain” value in data set [2] (delay in the administration of HAV6 and Galbumin) is “could not deliver Galbumin when there was a delay in the administration of HAV6 and Galbumin”. Besides, the inflammation and astrogliosis result in data set [3] is “did not induce inflammation and astrogliosis”. The “EC1 binding site location” value in data set [4] is on record as “dock on the surface of EC1 that interacts with the EC2 surface from a neighboring cadherin protein”. Regarding “Cyclo(1,6)Ac-CSHAVC-NH2 (disulfide) [cHAVc3]”, in data set [4], the “EC1 binding and effect on cis-cadherin interactions” value is “increased the porosity of the paracellular route through binding to the EC1 domain followed by disruption of the cis-cadherin interactions”; the “EC1 binding site location” value was “found at the opposite side of ADT cyclic 5 (ADTC5) binding site; also recorded: dock on the surface of EC1 that interacts with the EC2 surface from a neighboring cadherin protein; also recorded: binds to the opposite side of ADTC5-binding site”.

B1: ADTC9 (peptide)
peptide: Ac-CDTPPYC-NH2
modifications: disulfide 1-7
SMILES: CC(=O)N[C@H]1CSSC[C@@H](C(N)=O)NC(=O)[C@H](Cc2ccc(O)cc2)NC(=O)[C@@H]2CCCN2C(=O)[C@@H]2CCCN2C(=O)[C@H]([C@@H](C)O)NC(=O)[C@H](CC(=O)O)NC1=O
notes: Cyclo(1,7)Ac-CDTPPYC-NH2; derivative of ADTC5 with Val6 replaced by Tyr6; source: synthetic peptide (Fmoc solid-phase synthesis, HPLC purified, cyclized by air oxidation)
Turning to B1, the Kd in data set [5] was found to be 181 µM.

B2: Ala-Asp-Thr Cyclic 5 (ADTC5) (peptide)
peptide: Ac-CDTPPVC-NH2
modifications: disulfide 1-7
SMILES: CC(=O)N[C@H]1CSSC[C@@H](C(N)=O)NC(=O)[C@H](C(C)C)NC(=O)[C@@H]2CCCN2C(=O)[C@@H]2CCCN2C(=O)[C@H]([C@@H](C)O)NC(=O)[C@H](CC(=O)O)NC1=O
notes: Cyclo(1,7)Ac-CDTPPVC-NH2; ADT peptide designed from the bulge region of the cadherin EC1 domain; also called ADT cyclic 5; source: synthetic peptide (Fmoc solid-phase synthesis, HPLC purified, cyclized by air oxidation)
As to B2, the Kd in data set [5] was determined as 35 µM.

B3: ADTC7 (peptide)
peptide: Ac-CDTPPEC-NH2
modifications: disulfide 1-7
SMILES: CC(=O)N[C@H]1CSSC[C@@H](C(N)=O)NC(=O)[C@H](CCC(=O)O)NC(=O)[C@@H]2CCCN2C(=O)[C@@H]2CCCN2C(=O)[C@H]([C@@H](C)O)NC(=O)[C@H](CC(=O)O)NC1=O
notes: Cyclo(1,7)Ac-CDTPPEC-NH2; derivative of ADTC5 with Val6 replaced by Glu6; source: synthetic peptide (Fmoc solid-phase synthesis, HPLC purified, cyclized by air oxidation)
For B3, the equilibrium dissociation constant (Kd) in data set [5] worked out at 64 µM.
